Laboratory results from patent US20260265244A1, “HETEROCYCLIC COMPOUNDS AS STING ANTAGONISTS” (Boehringer Ingelheim International GmbH, priority 2022, published 2026).
Where two headings read alike, the source gives them in different places.

How the values were obtained:
human STING WT (R232) = target: T1, human STING WT (R232) (Homo sapiens, UniProt Q86WV6, H232R); assay: Human STING HTRF binding assay (competitive, Cisbio 64BDSTGPEG)
T1 construct: purchased Cisbio 64BDSTGPEG
How it was run: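 Competitive HTRF: 6His-tagged human STING WT R232 binding domain (residues 138-379) with anti-6His Cryptate antibody and d2-labeled STING ligand, 180 min at room temperature, 1% DMSO, 8 concentrations from 10 μM or 1 μM top in ~1:5 steps. HTRF ratios were calibrated to a cGAMP standard curve and IC50 obtained by 4-parameter logistic fit.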

[1] = tested on: STING inhibition in human whole blood (IFNα2α production); assay: Human whole blood assay (HWBA): cGAMP-stimulated IFNα2α production; type: cell-based
How it was run: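 Na-citrate human whole blood from ≥3 healthy donors, preincubated 60 min at room temperature with compound (8 concentrations, top 10 μM, ~1:5 steps, 0.1% DMSO), then stimulated with cGAMP and incubated 22 h at 37 °C. Plasma IFNα2α measured by MSD immunoassay; % control versus stimulated/unstimulated wells, IC50 by 4-parameter logistic fit.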

T1 sequence (Q86WV6 138-379 H232R): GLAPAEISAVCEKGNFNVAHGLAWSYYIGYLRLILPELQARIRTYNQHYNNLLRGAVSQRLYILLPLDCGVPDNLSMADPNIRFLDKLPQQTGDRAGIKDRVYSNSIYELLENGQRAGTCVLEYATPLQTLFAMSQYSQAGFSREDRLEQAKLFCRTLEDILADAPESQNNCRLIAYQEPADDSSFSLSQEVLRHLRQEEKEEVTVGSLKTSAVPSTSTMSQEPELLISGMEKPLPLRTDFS

Structure (SMILES) | IC50 (human STING WT (R232)) [nM] | IC50 ([1]; Homo sapiens) [nM] | IC50 [1] [nM]
[2H][C@](O)(Cn1cc2c(-c3nn(-c4cc5cn(C)nc5nc4C)c(C)c3C(C)C)cccc2n1)c1ccccc1 [Example 3, (1R)-2-[4-(1-{2,6-dimethyl-2H-pyrazolo[3,4-b]pyridin-5-yl}-5-methyl-4-(propan-2-yl)-1H-pyrazol-3-yl)-2H-indazol-2-yl]-1-phenyl(1-^2H)ethan-1-ol] | 5.1 | 58 | 
Cc1nc2nn(C)cc2cc1-n1nc(-c2cccc3nn(C[C@H](OCCC(C)(C)O)c4ccccc4)cc23)c(C(C)C)c1C [Example 74, 4-[(1R)-2-[4-(1-{2,6-dimethyl-2H-pyrazolo[3,4-b]pyridin-5-yl}-5-methyl-4-(propan-2-yl)-1H-pyrazol-3-yl)-2H-indazol-2-yl]-1-phenylethoxy]-2-methylbutan-2-ol] | 16.9 | 450 | 
COC(C)c1nc2nn(C)cc2cc1-n1nc(-c2cccc3nn(C[C@H](O)c4ccccc4)cc23)c(C(C)C)c1C (some centres unmarked) [Example 75] | 9.8 |  | 450
Cc1c(C(C)C)c(-c2cccc3nn(C[C@H](O)c4ccccc4)cc23)nn1-c1ccn2c(C(F)F)nnc2c1C1CC1 [Example 76] | 17.4 | 520 | 
Cc1nc2nn(C)cc2cc1-n1nc(-c2cccc3nn(C[C@H](OCCF)c4ccccc4)cc23)c(C(C)C)c1C [Example 78, 4-(1-{2,6-dimethyl-2H-pyrazolo[3,4-b]pyridin-5-yl}-5-methyl-4-(propan-2-yl)-1H-pyrazol-3-yl)-2-[(2R)-2-(2-fluoroethoxy)-2-phenylethyl]-2H-indazole] | 16.7 | 560 | 
C=CCO[C@@H](Cn1cc2c(-c3nn(-c4cc5cn(C)nc5nc4C)c(C)c3C(C)C)cccc2n1)c1ccccc1 [Example 79, 4-(1-{2,6-dimethyl-2H-pyrazolo[3,4-b]pyridin-5-yl}-5-methyl-4-(propan-2-yl)-1H-pyrazol-3-yl)-2-[(2R)-2-phenyl-2-(prop-2-en-1-yloxy)ethyl]-2H-indazole] | 20.1 | 580 | 
Cc1c(C(C)C)c(-c2cccc3nn(C[C@H](O)c4ccccc4)cc23)nn1-c1cc2cn(C)nc2nc1C1(C)CC1 [Example 80, (1R)-2-(4-{5-methyl-1-[2-methyl-6-(1-methylcyclopropyl)-2H-pyrazolo[3,4-b]pyridin-5-yl]-4-(propan-2-yl)-1H-pyrazol-3-yl}-2H-indazol-2-yl)-1-phenylethan-1-ol] | 17.5 | 580 | 
CCCO[C@@H](Cn1cc2c(-c3nn(-c4cc5cn(C)nc5nc4C)c(C)c3C(C)C)cccc2n1)c1ccccc1 [Example 81, 4-(1-{2,6-dimethyl-2H-pyrazolo[3,4-b]pyridin-5-yl}-5-methyl-4-(propan-2-yl)-1H-pyrazol-3-yl)-2-[(2R)-2-phenyl-2-propoxyethyl]-2H-indazole] | 31.1 | 610 | 
Cc1cc([C@@H](O)Cn2cc3c(-c4nn(-c5cc6cn(C)nc6nc5C)c(C)c4C(C)C)cccc3n2)ccn1 [Example 82, (1R)-2-[4-(1-{2,6-dimethyl-2H-pyrazolo[3,4-b]pyridin-5-yl}-5-methyl-4-(propan-2-yl)-1H-pyrazol-3-yl)-2H-indazol-2-yl]-1-(2-methylpyridin-4-yl)ethan-1-ol] | 3.2 | 610 | 
Cc1nc2nn(C)cc2cc1-n1nc(-c2cccc3nn(CC(O)C4CCCCC4)cc23)c(C(C)C)c1C (centres unmarked) [Example 83, 1-cyclohexyl-2-[4-(1-{2,6-dimethyl-2H-pyrazolo[3,4-b]pyridin-5-yl}-5-methyl-4-(propan-2-yl)-1H-pyrazol-3-yl)-2H-indazol-2-yl]ethan-1-ol] | 23.7 | 630 | 
CNc1nc2nn(C)cc2cc1-n1nc(-c2cccc3nn(C[C@H](O)c4ccccc4)cc23)c(C(C)C)c1C [Example 84, (1R)-2-(4-{5-methyl-1-[2-methyl-6-(methylamino)-2H-pyrazolo[3,4-b]pyridin-5-yl]-4-(propan-2-yl)-1H-pyrazol-3-yl}-2H-indazol-2-yl)-1-phenylethan-1-ol] | 21 | 640 | 
COCCO[C@@H](Cn1cc2c(-c3nn(-c4cc5cn(C)nc5nc4C)c(C)c3C(C)C)cccc2n1)c1ccccc1 [Example 85, 4-(1-{2,6-dimethyl-2H-pyrazolo[3,4-b]pyridin-5-yl}-5-methyl-4-(propan-2-yl)-1H-pyrazol-3-yl)-2-[(2R)-2-(2-methoxyethoxy)-2-phenylethyl]-2H-indazole] | 15.9 | 660 | 
Cc1c(-n2nc(-c3cccc4nn(C[C@H](O)c5ccccc5)cc34)c(C(C)C)c2C)ccn2c(C)nnc12 [Example 86, (1R)-2-[4-(1-{3,8-dimethyl-[1,2,4]triazolo[4,3-a]pyridin-7-yl}-5-methyl-4-(propan-2-yl)-1H-pyrazol-3-yl)-2H-indazol-2-yl]-1-phenylethan-1-ol] | 6.9 | 690 | 
Cc1c(C(C)C)c(-c2cccc3nn(C[C@H](O)c4ccccc4)cc23)nn1-c1cc2cn(C)nc2nc1N(C)C [Example 87, (1R)-2-(4-{1-[6-(dimethylamino)-2-methyl-2H-pyrazolo[3,4-b]pyridin-5-yl]-5-methyl-4-(propan-2-yl)-1H-pyrazol-3-yl}-2H-indazol-2-yl)-1-phenylethan-1-ol] | 20.2 | 850 | 
Cc1nc2nn(C)cc2cc1-n1nc(-c2cccc3nn(CC(O)c4ccc(Br)cc4)cc23)c(C(C)C)c1C (centres unmarked) [Example 88, 1-(4-Bromophenyl)-2-[4-(1-{2,6-dimethyl-2H-pyrazolo[3,4-b]pyridin-5-yl}-5-methyl-4-(propan-2-yl)-1H-pyrazol-3-yl)-2H-indazol-2-yl]ethan-1-ol] | 97.9 | 930 | 
Cc1c(C(C)C)c(-c2cccc3nn(C[C@H](O)c4ccccc4)cc23)nn1-c1cc2cn(C)nc2nc1C(C)(C)O [Example 89, 2-[5-(3-{2-[(2R)-2-hydroxy-2-phenylethyl]-2H-indazol-4-yl}-5-methyl-4-(propan-2-yl)-1H-pyrazol-1-yl)-2-methyl-2H-pyrazolo[3,4-b]pyridin-6-yl]propan-2-ol] | 17.2 | 1000 | 
Cn1cc2cc(-c3nc(-c4cccc5nn(C[C@H](O)c6ccc(OCC#N)cc6)cc45)c(C4CC4)n3C)c(C3CC3)nc2n1 [Example 90, 2-{4-[(1R)-2-[4-(5-cyclopropyl-2-{6-cyclopropyl-2-methyl-2H-pyrazolo[3,4-b]pyridin-5-yl}-1-methyl-1H-imidazol-4-yl)-2H-indazol-2-yl]-1-hydroxyethyl]phenoxy} acetonitrile] | 19.9 | 1100 | 
Cn1cc([C@@H](O)Cn2cc3c(-c4nc(-c5cc6cn(C)nc6nc5C5CC5)n(C)c4C4CC4)cccc3n2)cn1 [Example 91, (1R)-2-[4-(5-cyclopropyl-2-{6-cyclopropyl-2-methyl-2H-pyrazolo[3,4-b]pyridin-5-yl}-1-methyl-1H-imidazol-4-yl)-2H-indazol-2-yl]-1-(1-methyl-1H-pyrazol-4-yl)ethan-1-ol] | 7.6 | 1600 | 
Cc1nc2nn(C)cc2cc1-n1nc(-c2cccc3nn(C[C@H](O)c4ccccc4)cc23)c(C2(C)CC2)c1C [Example 92, (1R)-2-[4-(1-{2,6-Dimethyl-2H-pyrazolo[3,4-b]pyridin-5-yl}-5-methyl-4-(1-methylcyclopropyl)-1H-pyrazol-3-yl)-2H-indazol-2-yl]-1-phenylethan-1-ol] | 4.3 | 2000 | 
CCc1c(-c2cccc3nn(C[C@H](O)c4ccccc4)cc23)nn(-c2cc3cn(C)nc3nc2C)c1CC [Example 93, (1R)-2-[4-(1-{2,6-dimethyl-2H-pyrazolo[3,4-b]pyridin-5-yl}-4,5-diethyl-1H-pyrazol-3-yl)-2H-indazol-2-yl]-1-phenylethan-1-ol] | 17.4 | 2400 | 
Cc1c(-n2nc(-c3cccc4nn(C[C@H](O)c5ccccc5)cc34)c(C(C)C)c2C)ccn2c(C)cnc12 [Example 94, (1R)-2-[4-(1-{3,8-dimethylimidazo[1,2-a]pyridin-7-yl}-5-methyl-4-(propan-2-yl)-1H-pyrazol-3-yl)-2H-indazol-2-yl]-1-phenylethan-1-ol] | 17.1 | 2400 | 
Cc1nc2nn(C)cc2cc1-n1nc(-c2cccc3nn(C[C@H](O)c4ccccc4)cc23)c(C(C)CO)c1C (stereo partly drawn) [Example 95, 2-(1-{2,6-dimethyl-2H-pyrazolo[3,4-b]pyridin-5-yl}-3-{2-[(2R)-2-hydroxy-2-phenylethyl]-2H-indazol-4-yl}-5-methyl-1H-pyrazol-4-yl)propan-1-ol] | 11.4 | 2500 | 
